This is an account of results in paper PMC6747087, “Characterization of Tachyplesin Peptides and Their Cyclized Analogues to Improve Antimicrobial and Anticancer Properties” (International Journal of Molecular Sciences, 2019).

Data set [1] concerns human red blood cells (RBCs). The experiment in a line: Hemolytic activity against human red blood cells. It counts as cell-based. Particulars: human RBCs 0.25% (v/v), 1 h, 37 °C; mean ± SEM. The procedure: (§1) A small amount of blood was collected from three healthy human donors. The blood was immediately diluted in PBS and centrifuged 4–5 times for 1 min at 4000 rpm to wash and separate the human red blood cells (RBCs). RBCs suspension (0.25% (v/v) in PBS) was incubated with peptides with two-fold serial dilutions of the peptide (highest concentration tested was 128 µM, and the lowest was 0.25 µM) in a 96-well plate. Melittin, a membrane disruptive peptide, was used as control. The plates were incubated for 1 h at 37 °C. After incubation, the plates were centrifuged for 5 min at 1000 rpm to pellet any non-lysed RBCs. A total of 100 µL of the supernatant were transferred to a new 96-well plate. The hemoglobin released into the supernatant from lysed cells was measured by absorbance at 415 nm using the Tecan infinite M1000Pro multiplate reader (Männedorf, Switzerland).

The nature of data set [2]: Hemolytic activity against human red blood cells. Particulars: at 64 µM peptide, human RBCs, read-out: RBCs lysed (hemolysis). The class given is cell-based. Here is the method: as §1
Data set [3] in a line: Cytotoxicity assay (resazurin). Particulars: ± SEM, n ≥ 3; for CC50 at 2 h: human. It counts as cell-based, Human. The procedure: Cells were grown in cell culture flasks and incubated in a humidified atmosphere (5% CO2, 37 °C). The cancer cell lines HeLa and the control cell line HaCaT were grown in a DMEM medium supplemented with 1% (v/v) penicillin/streptomycin and 10% (v/v) fetal bovine serum (FBS). The cancer cell lines MM96L, HT144 and WM164 were grown in a RPMI medium supplemented with 1% (v/v) penicillin/[…], 10% (v/v) FBS, 20 mM L-glutamine, and 10 mM sodium pyruvate. Cell cultures were maintained by dilution upon reaching confluence, each 48–72 h. More information about the cell lines is available in Tables S2 and S3.
(§2) Cells were seeded into 96-well flat-bottom plates at 5 × 10^3 cells/well and incubated overnight. The medium was removed and replaced with 90 µL serum-free medium, 10 µL of 10x concentrated peptide solutions in PBS were added. PBS was added as blank and 0.1% (v/v) Triton X-100 was used to establish 100% of cell death. After 2 h incubation at 37 °C, 10 µL of filtered 0.05% (w/v) resazurin solution was added to each well [70]. Resazurin is converted to the pink and fluorescent compound resorufin by viable cells. After incubation overnight, the fluorescence intensity (λex = 565 nm and λem = 584 nm) was measured with the Tecan infinite M1000Pro multiplate reader (Männedorf, Switzerland).

For data set [4] the following is noted: human serum, 2 h; cited from earlier work.
The subject of a further data set is E. coli DC2 CGSC 7139. The data set can be described thus: MIC against planktonic bacteria (resazurin). The class given is cell-based, Escherichia coli. The note with it: Mueller Hinton Broth. The procedure: (§3) S. aureus ATCC 25923, S. aureus ATCC 6538, E. coli ATCC 25922, and E. coli DC2 CGSC 7139 were grown in Mueller Hinton Broth (Sigma Aldrich, St. Luis, USA). Bacterial cultures in the exponential growth phase were diluted to an OD600nm of 0.001 and seeded into 96-well plates. Peptides at different concentrations, starting at 64 µM and with two-fold serial dilutions (i.e., 64, 32, 16, 8, 4, 2, 1, 0.5, 0.25, 0.125 and 0.0625 µM), were incubated with cells; 0.05% (v/v) resazurin was added to the cultures the next day and the conversion to resorufin was measured after 1 h of incubation at 37 °C using a 565 nm excitation and 584 nm emission wavelength, as above.
A general note: Alamar Blue is a resazurin reagent that responds to reducing activity.

The test system of a further data set is E. coli ATCC 25922. The experiment in a line: MIC against planktonic bacteria (resazurin). The class given is cell-based, Escherichia coli. The note with it: Mueller Hinton Broth. The procedure: as §3
The next data set in a line: in vitro. Particulars: human, 25% (v/v) human serum. The procedure:
The serum stability assay was carried out as previously described with some modifications. Briefly, tachyplesin variants were incubated in 25% (v/v) human serum diluted in phosphate-buffered saline (PBS) at a final concentration of 50 µM at 37 °C. Triplicates were collected at time 0 h and 24 h and the serum proteins were precipitated with acetonitrile (1:3 ratio) supplemented with 3% TFA. Samples were kept on ice for 10 min before centrifugation at 17,000× g for 10 min at 4 °C. The peptide containing supernatant of each sample was harvested and quantified using RP-HPLC (10 to 45% solvent B, 1%/min gradient). The percentage of peptide stability in human serum was calculated by comparing the area of the peptide peak obtained at 24 h to that at time 0 h. A linear peptide containing 18 amino acid residues ([…]) was included as a control susceptible to proteolytic degradation.

The conditions of data set [5]: mouse serum, 2 h; cited from earlier work.
A short description of data set [6]: Activity against preformed biofilm (resazurin metabolic activity). It counts as cell-based, Staphylococcus aureus. Particulars: 24 h preformed biofilm, 4 h peptide treatment, read-out: CC50 (reduction of 50% of the metabolically active cell population). Here is the method:
(§4) S. aureus ATCC 6538 (1 × 10^6 cfu/mL) was cultured in Tryptic Soy Broth, containing 0.25% (w/v) glucose and incubated in 96-well microtiter flat-bottomed polystyrene plates for 24 h at 37 °C. Preformed biofilms were then washed with Mueller Hinton Broth to remove non-adherent cells. Two-fold serial dilutions of each peptide (highest concentration tested was 32 µM and lowest was 0.25 µM) were added to the biofilms for 4 h. Untreated 24 h preformed biofilms were used as a control. The metabolic activity of biofilm-embedded cells was determined using a resazurin reduction fluorometric assay as previously described.

Another data set relates to S. aureus ATCC 6538. The data set can be described thus: MIC against planktonic bacteria (resazurin). The class given is cell-based, Staphylococcus aureus. Particulars: Mueller Hinton Broth. The procedure: as §3
In the next data set the test system is S. aureus ATCC 25923. The experiment in a line: MIC against planktonic bacteria (resazurin). The class given is cell-based, Staphylococcus aureus. Particulars: Mueller Hinton Broth. Here is the method:
as §3

The test system of data set [7] is Pseudomonas aeruginosa biofilm. Also on record: method as in PMID 18022289. Particulars: rat model of ureteral stent infection; cited from earlier work.
Data set [8] relates to melanoma cell lines MM96L, HT144 and WM164. The data set can be described thus: Cytotoxicity and selectivity (activity-toxicity index) for melanoma cell lines. It counts as cell-based. The note with it: MHC inducing 10% (lower value) or 50% (higher value) cell death in human RBCs over median CC50 of melanoma lines. Here is the method: as §2
The selectivity was calculated through the activity-toxicity index (ATI). ATI = MHC/MCC50, with MHC being the minimal concentration necessary to induce 10% or 50% cell death in human red blood cells and MCC50 the median of cytotoxic concentrations (CC50) of all tested melanoma cell lines.

The subject of data set [9] is S. aureus ATCC 6538 biofilm. The experiment in a line: Activity against preformed biofilm (resazurin metabolic activity). The class given is cell-based, Staphylococcus aureus. Particulars: cells remaining metabolically active at 32 µM, the highest concentration tested. Here is the method: as §4
Where [10] appears, read: HT144, 2 h peptide in serum-free medium.
[11] abbreviates: WM164, 2 h peptide in serum-free medium.

SMILES strings stand for the structures. Where two headings read alike, the source gives them in different places. Residues, ends and D or L forms follow the SMILES beside them.

In the case of `[H][C@]12CSSC[C@]([H])(NC(=O)[C@]([H])([C@@H](C)CC)NC(=O)CNC(=O)[C@H](CCCNC(=N)N)NC(=O)[C@H](Cc3ccc(O)cc3)NC1=O)C(=O)N[C@@H](Cc1ccc(O)cc1)C(=O)N[C@@H](CCCNC(=N)N)C(=O)N[C@@H](CCCNC(=N)N)C(=O)N[C@H](C(=O)N[C@@H](CCCNC(=N)N)C(N)=O)CSSC[C@H](NC(=O)[C@H](Cc1c[nH]c3ccccc13)NC(=O)[C@@H](N)CCCCN)C(=O)N[C@@H](Cc1ccccc1)C(=O)N[C@@H](CCCNC(=N)N)C(=O)N[C@@H](C(C)C)C(=O)N2` [TI, Tachyplesin I] (HELM PEPTIDE1{K.W.C.F.R.V.C.Y.R.G.I.C.Y.R.R.C.R.[am]}$PEPTIDE1,PEPTIDE1,3:R3-16:R3|PEPTIDE1,PEPTIDE1,7:R3-12:R3$$$V2.0), in data set [1], the “HC50 (concentration required to induce 50% lysis in RBCs)” value is 34.9 ± 2.8 µM. In addition, the hemolysis in [2] came out at 66%. Besides, the CC50 in data set [3] (setting [10]) is 1700 ± 200 nM; in data set [3] (HaCaT non-cancerous control, 2 h peptide in serum-free medium), 11600 ± 1600 nM; in [3] (HeLa, 2 h peptide in serum-free medium), 13100 ± 1200 nM; in data set [3] (MM96L, 2 h peptide in serum-free medium), 1500 ± 100 nM; in [3] (setting [11]), 2500 ± 100 nM. Besides, the stability in serum entry in [4] and in [5] was “completely stable” throughout. In addition, the MIC in the data set with E. coli DC2 CGSC 7139 was in the range of 0.5 to 1 µM; with E. coli ATCC 25922, 0.0625 to 0.5 µM; with S. aureus ATCC 6538, 4 to 8 µM; with S. aureus ATCC 25923, 1 to 4 µM. Also, in the data set “in vitro”, the share remaining at 24 h, 50 µM worked out at 25%. The Concentration reducing biofilm metabolic activity by 50% in data set [6] is 21.5 ± 2.2 µM.

For `CC[C@H](C)[C@@H]1NC(=O)CNC(=O)[C@H](CCCNC(=N)N)NC(=O)[C@H](Cc2ccc(O)cc2)NC(=O)[C@@H]2CSSC[C@H](NC1=O)C(=O)N[C@@H](Cc1ccc(O)cc1)C(=O)N[C@@H](CCCNC(=N)N)C(=O)N[C@@H](CCCCN)C(=O)N[C@H](C(=O)N[C@@H](CCCNC(=N)N)C(N)=O)CSSC[C@H](NC(=O)[C@H](Cc1c[nH]c3ccccc13)NC(=O)[C@@H](N)CCCCN)C(=O)N[C@@H](Cc1ccccc1)C(=O)N[C@@H](CCCNC(=N)N)C(=O)N[C@@H](C(C)C)C(=O)N2` [TIII, Tachyplesin III] (HELM PEPTIDE1{K.W.C.F.R.V.C.Y.R.G.I.C.Y.R.K.C.R.[am]}$PEPTIDE1,PEPTIDE1,3:R3-16:R3|PEPTIDE1,PEPTIDE1,7:R3-12:R3$$$V2.0; N-terminus assumed), in data set [7], the “prevention of biofilm formation” value is “prevent the formation of a Pseudomonas aeruginosa biofilm”. In addition, in [1], the “HC50 (concentration required to induce 50% lysis in RBCs)” value was 86.4 ± 12.2 µM. The hemolysis at 1 h in data set [2] (red blood cells in PBS) worked out at 41%. Also, the “Melanoma Selectivity (activity-toxicity index, ATI = MHC/MCC50)” value in data set [8] is recorded as 5–48. The CC50 at 2 h in data set [3] (HaCaT keratinocyte cells, HaCaT non-cancerous control, 2 h peptide in serum-free medium) stood at 7300 ± 500 nM; in data set [3] (HeLa cervical cancer cells, 2 h peptide in serum-free medium), 21700 ± 1100 nM; in data set [3] (MM96L melanoma cells, 2 h peptide in serum-free medium), 1800 ± 100 nM; in [3] (setting [10]) it was 2000 ± 100 nM; in [3] (setting [11]), 1700 ± 100 nM. In addition, the minimum inhibitory concentration (MIC) against E. coli DC2 CGSC 7139 was in the range of 0.25 to 0.5 µM; with E. coli ATCC 25922, 0.0625 to 0.5 µM; in the data set on S. aureus ATCC 6538, 4 to 8 µM; in the data set with S. aureus ATCC 25923, 1 to 4 µM. The “Metabolically Active Cells” value in [9] turned out to be 43.3 ± 4.1%. The Concentration reducing biofilm metabolic activity by 50% at 4 h in data set [6] (Staphylococcus aureus, preformed S. aureus biofilm) was 24.2 ± 4.1 µM.

A word on the CC50: it is the concentration that lowers cell viability or growth by half. The term MIC denotes the lowest concentration found to suppress growth. As usually defined, the amount remaining is what is left of the initial amount, in per cent. Low values mean more turnover, high ones less turnover.
